Experimental data published in article PMC6668147, “Ancient role of vasopressin/oxytocin-type neuropeptides as regulators of feeding revealed in an echinoderm” (BMC Biology, 2019).
Entries after “also recorded” stand apart in the source; their conditions may differ. Like-named read-outs stand apart in the source and are kept apart here.

Columns and labels:
insects = settings: cited from earlier work
Source text: Thus, the evolutionary origin of at least 30 neuropeptide families (including VP/OT-type) can be traced back to the bilaterian common ancestor of deuterostomes (vertebrates and invertebrate chordates, hemichordates, echinoderms) and protostomes (e.g. arthropods, nematodes, molluscs, annelids). Definitive evidence of the antiquity of VP/OT-type neuropeptides was first obtained with the purification and sequencing of VP/OT-type neuropeptides from insect and molluscan species [[8], ...

mammals [1] = settings: cited from earlier work
Source text: Physiological processes and behaviour are controlled and regulated by a huge variety of neuronally secreted peptide signalling molecules (neuropeptides), which typically exert their effects on target cells by binding to cognate G-protein coupled receptors (GPCRs). Amongst the most intensely studied neuropeptides are vasopressin (VP) and oxytocin (OT). VP and OT are structurally related neuropeptides that were originally discovered based on their peripheral actions as pituitary hormones in mammals. VP is a cyclic and amidated nonapeptide (CYFQNCPRG-NH2; with a disulphide bridge betwee ...

[2] = tested on: A. rubens VP/OT-type receptor; assay: Ca2+-induced luminescence in CHO-K1/G5A cells expressing the A. rubens VP/OT-type receptor and Gα16; format: cell-based, Asterias rubens; settings: 10^−4 M; Wilcoxon signed-rank test vs basal media; n = 9
Source text: A pBluescript SKII (+) vector containing the A. rubens VP/OT-type receptor cDNA as an insert (see above) was used as a template to amplify by PCR the open reading frame of the VP/OT-type receptor. To accomplish this, the oligonucleotides 5′-ggatccCACCATGACGCCCTC-3′ (upstream) and 5′-cccgggCTACATGTGAGCGGAAGCA-3′ (downstream) were used as primers and the PCR product was subcloned into the eukaryotic expression vector pcDNA 3.1+, which had been cut with the restriction enzymes BamHI and […]. For the upstream primer, a partial Kozak translation initiation sequence (CACC) was introduced before the start codon to optimise the initiation of translation.
For this assay, Chinese hamster ovary (CHO-K1) cells stably expressing the Ca^2+-sensitive bioluminescent GFP-aequorin fusion protein—G5A (CHO-K1/G5A cells) are co-transfected with plasmids containing a G-protein coupled receptor cDNA insert and plasmids containing an insert encoding the promiscuous G-protein Gα16. If a candidate ligand activates the expressed receptor, the promiscuous Gα16 protein triggers the activation of the IP3 signalling pathway, causing an increase in intracellular Ca^2+ and luminescence. […] Asterotocin at concentrations ranging from 10^−4 to 10^−12 M (n = 3) was pipetted into the wells of clear-bottomed 96-well plates (Sigma-Aldrich), then a FLUOstar Omega Plate Reader (BMG LABTECH) was used to inject a fixed amount of transfected CHO-K1 cells into each well sequentially, and luminescence was measured for a 35-s period after injection. Luminescence measurements were normalised to the maximum response obtained in each experiment (100%) and the response obtained with the vehicle media (0%). […] The half maximal effective concentration (EC50) was calculated from the dose-response curve in Prism 6.0c. […] A Wilcoxon signed-rank test was performed to compare luminescence of cells exposed to asterotocin, vasopressin, oxytocin and NGFFYamide (at 10^−4 M) with luminescence of cells in basal media (control).

A. rubens [3] = assay: Body posture / arm flexion after injection; format: in vivo, Asterias rubens; settings: S2, compared with asterotocin
A. rubens [4] = settings: cited from earlier work
Source text: Starfish feed by firstly prying apart the bivalve shells of prey (e.g. mussels) with their tube feet and then […] cardiac stomach out of their mouth and over the exposed digestible soft tissues. In order for the cardiac stomach to be everted, it must be in a relaxed state, and therefore, neuropeptides that cause cardiac stomach relaxation in vitro are potential mediators of eversion in vivo.

[5] = tested on: cardiac stomach preparations from A. rubens; assay: Relaxation of in vitro cardiac stomach preparations; design: species or system Asterias rubens; settings: 10^−7 M, KCl pre-contraction
Protocol: To investigate if asterotocin affects muscle contractility in A. rubens, synthetic asterotocin (custom synthesised by PPR Ltd., Fareham, Hampshire, UK) was tested on three in vitro preparations: the cardiac stomach, apical muscle and tube feet. These three preparations have been used to examine the effects of other neuropeptides, and the methods employed have been described in detail previously. […] Therefore, the effects of asterotocin on cardiac stomach and apical muscle preparations were examined in more detail.
Cardiac stomach preparations from 16 starfish (8–13.5 cm in diameter) were incubated at 11 °C in an aerated organ bath containing artificial seawater with 3 × 10^−2 M added KCl. This induces sustained contraction of the cardiac stomach, which facilitates recording of the effects of neuropeptides that act as muscle relaxants. The contractile state of preparations was monitored using a high-grade isotonic transducer (model 60-3001; Harvard Apparatus, Cambridge, UK) connected to a Goerz SE 120 chart recorder (Recorderlab, Sutton, Surrey, UK) or using a high-grade isotonic transducer (MLT0015; ADInstruments Ltd., Oxford, UK) connected to data acquisition hardware (PowerLab 2/26, ADInstruments Ltd.) via a bridge amplifier (FE221 Bridge Amp, ADInstruments Ltd.). The output from the PowerLab was recorded using LabChart (v8.0.7) software installed on a laptop computer (Lenovo E540, Windows 7 Professional). To obtain representative images of the effects of asterotocin, traces were exported from LabChart into Adobe Photoshop and the function ‘Select and Mask’ was utilised to remove the background grid pattern.
The percentage relaxation at each concentration was calculated relative to the maximal relaxing effect produced by asterotocin in each preparation. […] For these experiments, the effect of 10^−7 M S2 was defined as 100%, and the effect of 10^−7 M asterotocin was calculated as a percentage of the effect of 10^−7 M S2. The relaxing effects of asterotocin and S2 on cardiac stomach preparations were analysed statistically using the Mann-Whitney U test.

[6] = tested on: cardiac stomach preparations from A. rubens; settings: in vitro; cited from earlier work
Protocol: Therefore, it was of interest here to investigate the effects of asterotocin on muscle preparations from A. rubens. […] The percentage relaxation at each concentration was calculated relative to the maximal relaxing effect produced by asterotocin in each preparation. To enable the assessment of the magnitude of the relaxing effect of asterotocin on cardiac stomach, experiments were performed to compare the effect asterotocin with the effect of the neuropeptide SALMFamide-2 (S2; […]-NH2), which has been shown previously to cause relax ...

A. rubens [7] = assay: In vivo cardiac stomach eversion, dose dependence; design: species or system Asterias rubens; settings: 10 μl of 10^−3 M S2 into perivisceral coelom; n = 5
Protocol: During feeding in A. rubens, the cardiac stomach is everted out of the mouth over the digestible soft tissue of prey (e.g. mussels), and to accomplish this, the cardiac stomach must be relaxed. […] First, a pilot experiment was performed using 30 starfish (diameter 6.4–7.5 cm) that had been starved for 1 week to normalise their physiological status. Then animals were injected with different doses of asterotocin (10 μl of 10^−6–10^−3 M; n = 5 for each dose) or with 10 μl of water (negative control; n = 5) or with 10 μl of 10^−3 M S2 (positive control; n = 5). The animals were injected at a site located in the aboral body wall of an arm proximal to the junction with the central disc and adjacent to the madreporite. Care was taken to ensure that the tip of a Hamilton syringe used for injections was pushed through the body wall into the perivisceral coelom but not too deep so as to avoid injecting into the digestive organs. The doses of asterotocin injected were informed by our analysis of the volume of the perivisceral coelomic fluid in A. rubens. […] Following injection, the starfish were placed in a glass vessel containing seawater so that the mouth of the animal could be observed from below.

A. rubens [8] = assay: Righting behaviour following 4-week starvation; format: in vivo, Asterias rubens
Protocol: To examine the specificity of the effects of asterotocin on starfish righting behaviour, an experiment was performed where the righting time of starfish (5.5–9.6 cm in diameter; starved for 4 weeks prior to testing) was measured before injection (n = 60; pooled from the three treatment groups) and after injection with 5 μl 10^−3 M asterotocin (n = 20) or 5 μl 10^−3 M S2 (n = 20) or 5 μl distilled water (n = 20). The time taken to right in seconds as well as the percentage difference between righting with and without injection was calculated. The percentage time difference between righting with and without injection in water-injected, asterotocin-injected and S2-injected animals was determined and plotted as a separated box and whiskers graph in Prism 6 (GraphPad 6). The effect of neuropeptides on righting behaviour was analysed statistically using the Mann-Whitney U test or a one-way ANOVA test with a post hoc Dunnett’s multiple comparisons test.

octopus rectum = settings: in vitro; cited from earlier work
Source text: What about in the protostome branch of the Bilateria? […] In the cephalopod mollusc Octopus vulgaris, the VP/OT-type signalling system has been characterised in detail and comprises two VP/OT-type neuropeptides, octopressin (OP) and cephalotocin (CT), and three cognate receptors (OPR, CTR1, CTR2). Furthermore, OP is expressed in the regions of the octopus nervous system involved in the control o ...

mammals [9] = settings: cited from earlier work; remark: listed apart in the source
Source text: Our discovery that asterotocin has such striking feeding-related effects in starfish provides a basis to examine if VP/OT-type neuropeptides are likewise involved in the regulation of feeding-associated processes in other taxa. Currently, little is known about the physiological roles of VP/OT-type neuropeptides in other echinoderms. […] This effect of echinotocin as a muscle contractant is consistent with the myoexcitatory eff ...

inotocin
role in urine production, in words (insects): VP-like role in regulating urine production

CYFQNCPRG-NH2 (disulfide) [vasopressin, human vasopressin; cyclic amidated nonapeptide (…-NH2)]
blood pressure, in words (mammals [1]): increases blood pressure | diuresis, in words (mammals [1]): acts as an antidiuretic | receptor activation at highest concentration tested, in words [2]: did not cause significant receptor activation; also recorded: not significantly higher than the basal media control

SGPYSFNSGLTF-NH2 [S2, SALMFamide neuropeptide S2 (…-NH2)]
posture change, in words (A. rubens [3]): does not induce the changes in posture | cardiac stomach eversion, in words (earlier work) (A. rubens [4]; 100 μl of 10^−3 M into perivisceral coelom): triggers cardiac stomach eversion | cardiac stomach eversion, in words (earlier work) (A. rubens [4]; injected in vivo): induces cardiac stomach eversion when injected in vivo | relaxing effect, S2 effect defined as 100% ([5]; replicate 1): 100% | relaxing effect, S2 effect defined as 100% ([5]; replicate 2): 100% | relaxing effect, S2 effect defined as 100% ([5]; replicate 3): 100% | relaxing effect, S2 effect defined as 100% ([5]; replicate 4): 100% | relaxing effect, S2 effect defined as 100% ([5]; replicate 5): 100% | effect on cardiac stomach preparations, in words [6]: acts as a relaxant of cardiac stomach preparations; also recorded: cause relaxation of A. rubens cardiac stomach preparations in vitro | cardiac stomach eversion, in words (A. rubens [7]): cardiac stomach eversion was not observed; also recorded: stomach eversion was not observed in any of the animals | significance of righting time vs water-injected, in words (A. rubens [8]; 5 μl of 10^−3 M S2, n = 20): not significantly different | mean righting time (A. rubens [8]; 5 μl of 10^−3 M, mean ± SEM, n = 20, water 341 ± 59 s, non-injected 345 ± 35 s): 312 ± 40 s | mean percentage righting time difference with vs without injection (A. rubens [8]; 5 μl of 10^−3 M, n = 20, water − 1.8 ± 13%): 15 ± 12%

NGFFYamide
receptor activation at highest concentration tested, in words [2]: did not cause significant receptor activation; also recorded: not significantly higher than the basal media control

octopressin
effect on rectum, in words (octopus rectum): myoexcitatory effects on in vitro preparations of the octopus rectum

CYIQNCPLG-NH2 (disulfide) [oxytocin, human oxytocin (…-NH2)]
effect on feeding, in words (mammals [9]): inhibits feeding | uterine contraction and lactation, in words (mammals [1]): causes uterine contraction and lactation | receptor activation at highest concentration tested, in words [2]: did not cause significant receptor activation; also recorded: not significantly higher than the basal media control
